Data set [1] has as its system human HaCat keratinocytes or MCF10A mammary epithelial cells. The data set is described as follows: Competition of GST-fusion proteins or synthetic peptides in EGF-stimulated scratch wound migration (FIG. 8 summary). The class given is cell-based. To be noted: for competitive activity: FIGS. 8A-C. On the procedure: FIGS. 8A-C. […] GST-fusion proteins or synthetic peptides were added at concentrations ranging from 0.1 to 30 μM to the culture medium of human HaCat keratinocytes or MCF10A mammary epithelial cells in the presence or absence of 20 ng/ml EGF. The ability of the constructs to inhibit the migration of the cells to close a scratch wound in confluent monolayers was determined and express as the concentration of inhibitor necessary to cause 50% inhibition of cell migration. (FIG. 8A) Competition using recombinant GST-fusion proteins. GST-Sdc4 fusion proteins bearing truncations or mutations were assessed for their competitive activity. […] (FIG. 8B) Schematic representation of the active site in Sdc4. The active site is shown as a juxtamembrane site in the ectodomain of Sdc4. TM is the transmembrane domain and CYTO is the cytoplasmic domain. The sequence of a peptide derived from this site ([…]) (SEQ ID NO: 4) is shown along with its homology across other mammalian Sdc4 species (SEQ ID NO: 12) and its homology to Sdc4 derived from zebrafish (SEQ ID NO: 13), identifying highly conserved amino acids at the extreme N- and C-terminus of the peptide. (FIG. 8C) Competition with synthetic peptides. Peptides were purchased from commercial sources for testing as a putative synstatin inhibitory peptide ([…]). Mutation of isoleucine at position 89 to alanine (I89A), or mutation of amino acids 99-108 to alanine (99-108A) reduce the activity by 10-fold. Truncation of amino acids 126-131 at the C-terminus (4126-131) reduces the activity by at least 100-fold.
Wound healing assay. HaCat or MCF10A cells grown to confluence on 48 well-plates were starved for 6 hr by serum deprivation followed by introduction of a scratch wound in the monolayer using 200 μl pipette tip. […] Images were acquired using a PlanApo 20 (0.75 numerical aperture) objective and a Photometrics CoolSnap ES camera on a Nikon Eclipse TE2000U microscopy system and wound closure quantified.

For the next data set, the system named is fibroblasts. To be noted: McFall et al.; cited from earlier work.
Data set [2] has as its system MCF10A mammary epithelial cells.
Protocol: Migration of human MCF10A mammary epithelial cells in response to EGF (10 ng/ml) is tested in 12 hr scratch wound closure assays.
Wound healing assay. HaCat or MCF10A cells grown to confluence on 48 well-plates were starved for 6 hr by serum deprivation followed by introduction of a scratch wound in the monolayer using 200 μl pipette tip. […] To cause EGF-stimulated chemotactic migration that depends on Sdc4, cells were stimulated with EGF (10 ng/ml). Images were acquired using a PlanApo 20 (0.75 numerical aperture) objective and a Photometrics CoolSnap ES camera on a Nikon Eclipse TE2000U microscopy system and wound closure quantified.
The subject of the next data set is MCF10A cells. The data set is described as follows: Total cell number, CellTiterGLO assay, MCF10A. The class given is cell-based, human. To be noted: 3-30 μM; 4 or 7 days; normal epithelium. On the procedure:
(§1) FIGS. 9A-F. SSTN treatment of normal (nontransformed) epithelial cells versus carcinoma (transformed) cells. Cells are plated for one day, then treated with either 3-30 μM […] (SSTN-I), 3-30 μM […] (SSTN-E), 3-30 μM SSTNHER2 (SSTN-H) or combinations of the three peptides, each at 10 μM to test their additive effect. […] The treatment times are chosen to reflect only modest effects of the peptides used singly, so that the more pronounced effect of peptides used in combination can still be observed. Treatment for longer times leads to significant cell death observed even with single peptides alone. (FIG. 9A) HaCat human keratinocytes, an example of a normal stratified epithelium, (FIG. 9B) UM-SCC47 cells, a squamous cell carcinoma derived from the tongue of a patient (a stratrified epithelium), (FIG. 9C) SCC25 cells, another squamous cell carcinoma from the tongue of a patient), (FIG. 9D) MCF10A cells, a normal human breast epithelium, (FIG. 9E) MDA-MB-468 cells, a triple-negative (TN) breast carcinoma, and (FIG. 9F) SKBr3 cells, a HER2+ human breast carcinoma. Note that all four carcinomas are inhibited by […], and this is enhanced when […] is combined with the other SSTN peptides, leading to obvious cell death (e.g., the number of cells at the end of the experiment are less than at the beginning).
(§2) Apoptosis assay. […]
For orientation: ATP-based viability assays read luminescence as a measure of living cells.

The test system of another data set is SKBr3 cells. Put plainly: Total cell number, CellTiterGLO assay, SKBr3. The class given is cell-based, human. To be noted: 3-30 μM; combinations each at 10 μM; 4 or 7 days. On the procedure: as §1, §2
The test system of a further data set is SCC25 cells. Put plainly: Total cell number, CellTiterGLO assay, SCC25. To be noted: 3-30 μM; combinations each at 10 μM; 4 or 7 days. The class given is cell-based, human. The procedure:
as §1, §2

A further data set relates to HaCat keratinocytes. The data set is described as follows: EGF-stimulated scratch wound closure (chemotactic migration) of HaCat keratinocytes. The following applies: EGF 10 ng/ml. It counts as cell-based, human.
In a further data set the test system is UM-SCC47 cells. Put plainly: Total cell number, CellTiterGLO assay, UM-SCC47. The class given is cell-based, human. The following applies: 3-30 μM; combinations each at 10 μM; 4 or 7 days. The procedure: as §1, §2
The next data set relates to MDA-MB-468 cells. Put plainly: Total cell number, CellTiterGLO assay, MDA-MB-468. It counts as cell-based, human. The following applies: 3-30 μM; combinations each at 10 μM; 4 or 7 days. The procedure: as §1, §2
The test system of data set [3] is HaCat human keratinocytes. Put plainly: Total cell number, CellTiterGLO assay, HaCat. It counts as cell-based. To be noted: 3-30 μM; 4 or 7 days; normal epithelium. The procedure: as §1, §2
The target in another data set is T1, EGFR (Homo sapiens, UniProt P00533).
T1 construct: endogenous in cells
The data set is described as follows: Capture of EGFR from cell lysates by GST-ectodomain on glutathione beads. The following applies: lysates of EGF-stimulated A431 cells / HaCat cell lysates, western blot. It counts as binding. The procedure:
(§3) (FIG. 6A) Mouse syndecan chimeras in which their ectodomains are switched are expressed in HaCat cells, then immunoprecipitated with antibodies specific for the mouse syndecan ectodomains. […] Also note that these complexes assemble only upon EGF treatment.
(§4) Immunoprecipitation. Immunoprecipitations were carried out as described previously (Beauvais et al., 2004; Beauvais et al., 2006). Cells were washed once with washing buffer (50 mM Hepes, 50 mM NaCl and 10 mM EDTA, pH 7.4) and lysed for 20 min on ice in 1% Triton X-100 containing a 1:1000 dilution of protease inhibitor mixture set III (Calbiochem) in washing buffer. Cell debris was removed by centrifugation at 20,000 g for 15 min at 4° C. Lysates or 6×His-tagged β4 cytoplasmic domain (amino acids 1677-1752) were incubated at 4° C. overnight with 100 μl Glutathione Sepharose 4B beads (50% in IP wash buffer), GST-S4CD or GST-S1CD in present or absent of different peptides. Samples were resolved by electrophoresis under reduced conditions on a 15% Laemmli gel, transferred to Immobilon P, and probed with primary antibody followed by an alkaline phosphatase-conjugated secondary antibody. Visualization of immune-reactive bands was performed using ECF reagent (GE Healthcare) and scanned on a Typhoon Trio Variable Mode Imager (GE-Healthcare) in blue fluorescence. […]
(In western blotting, separated proteins are transferred to a membrane and probed.)

Another data set deals with T2, HER2 (Homo sapiens, UniProt P04626).
T2 construct: endogenous in cells
Put plainly: Capture of HER2 from cell lysates by GST-ectodomain on glutathione beads. To be noted: lysates of EGF-stimulated A431 cells; western blot. It counts as binding. The procedure:
as §3, §4

A further data set addresses T3, α6β4 integrin (Homo sapiens, UniProt P16144+P23229).
T3 construct: endogenous in cells
The data set is described as follows: Capture of α6β4 integrin from cell lysates by GST-ectodomain on glutathione beads. The following applies: re-probed blot, data not shown. It counts as binding. On the procedure: Immunoprecipitation. Immunoprecipitations were carried out as described previously (Beauvais et al., 2004; Beauvais et al., 2006). Cells were washed once with washing buffer (50 mM Hepes, 50 mM NaCl and 10 mM EDTA, pH 7.4) and lysed for 20 min on ice in 1% Triton X-100 containing a 1:1000 dilution of protease inhibitor mixture set III (Calbiochem) in washing buffer. Cell debris was removed by centrifugation at 20,000 g for 15 min at 4° C. Lysates or 6×His-tagged β4 cytoplasmic domain (amino acids 1677-1752) were incubated at 4° C. overnight with 100 μl Glutathione Sepharose 4B beads (50% in IP wash buffer), GST-S4CD or GST-S1CD in present or absent of different peptides. Samples were resolved by electrophoresis under reduced conditions on a 15% Laemmli gel, transferred to Immobilon P, and probed with primary antibody followed by an alkaline phosphatase-conjugated secondary antibody. Visualization of immune-reactive bands was performed using ECF reagent (GE Healthcare) and scanned on a Typhoon Trio Variable Mode Imager (GE-Healthcare) in blue fluorescence.
The inventor's prior work has shown that Sdc1 contains a site in its extracellular domain to capture the αvβ3 or αvβ5 integrin and the insulin-like growth factor-1 receptor (IGF1-R) (Beauvais et al., 2009; Beauvais & Rapraeger, 2010). […]

The test system of data set [4] is MDA-MB-468 breast carcinoma. Put plainly: MDA-MB-468 breast carcinoma subcutaneous tumor growth in nude mice, Alzet pump delivery. It counts as in vivo, nude (nu/nu) mice. To be noted: 400 μM in pump, 0.25 μL/hr systemic, 8 wks, started 2 weeks after implantation. The procedure: (§5) FIG. 10. S4ED blocks MDA-MB-468 breast carcinoma growth in vivo. Human MDA-MB-468 breast carcinoma cells were implanted subcutaneously on the flank of nude (nu/nu) mice and allowed to grow for 2 weeks to form palpable tumors (dotted blue line indicates size after 2 weeks). At that time, systemic delivery (0.25 μL/hr) of 400 μM recombinant GST-S4ED, GST alone or saline alone (no treatment) was initiated by surgical implantation of Alzet pumps on the behind the shoulder blades of the animals for 4 wks, followed by replacement with pumps containing fresh protein for an additional 4 wks. Tumor size was measured with calipers at 2 week intervals. Error bars denote S.D., 10 tumors/treatment group.
(§6) The inventor has tested the entire recombinant S4ED protein (as a GST-S4ED fusion protein) as an inhibitor against one of these carcinoma cells (the MDA-MB-468 cells) during tumor growth in immunocompromised nude (nu/nu) mice.

A short description of data set [5]: Estimated blood concentration during Alzet pump delivery. The class given is in vivo, nude (nu/nu) mice. To be noted: 400 μM in the pump. On the procedure: as §5, §6

Entries after “also recorded” stand apart in the source; their conditions may differ. Ends that are not written are not given here.

T3 sequence (P23229 24-1130): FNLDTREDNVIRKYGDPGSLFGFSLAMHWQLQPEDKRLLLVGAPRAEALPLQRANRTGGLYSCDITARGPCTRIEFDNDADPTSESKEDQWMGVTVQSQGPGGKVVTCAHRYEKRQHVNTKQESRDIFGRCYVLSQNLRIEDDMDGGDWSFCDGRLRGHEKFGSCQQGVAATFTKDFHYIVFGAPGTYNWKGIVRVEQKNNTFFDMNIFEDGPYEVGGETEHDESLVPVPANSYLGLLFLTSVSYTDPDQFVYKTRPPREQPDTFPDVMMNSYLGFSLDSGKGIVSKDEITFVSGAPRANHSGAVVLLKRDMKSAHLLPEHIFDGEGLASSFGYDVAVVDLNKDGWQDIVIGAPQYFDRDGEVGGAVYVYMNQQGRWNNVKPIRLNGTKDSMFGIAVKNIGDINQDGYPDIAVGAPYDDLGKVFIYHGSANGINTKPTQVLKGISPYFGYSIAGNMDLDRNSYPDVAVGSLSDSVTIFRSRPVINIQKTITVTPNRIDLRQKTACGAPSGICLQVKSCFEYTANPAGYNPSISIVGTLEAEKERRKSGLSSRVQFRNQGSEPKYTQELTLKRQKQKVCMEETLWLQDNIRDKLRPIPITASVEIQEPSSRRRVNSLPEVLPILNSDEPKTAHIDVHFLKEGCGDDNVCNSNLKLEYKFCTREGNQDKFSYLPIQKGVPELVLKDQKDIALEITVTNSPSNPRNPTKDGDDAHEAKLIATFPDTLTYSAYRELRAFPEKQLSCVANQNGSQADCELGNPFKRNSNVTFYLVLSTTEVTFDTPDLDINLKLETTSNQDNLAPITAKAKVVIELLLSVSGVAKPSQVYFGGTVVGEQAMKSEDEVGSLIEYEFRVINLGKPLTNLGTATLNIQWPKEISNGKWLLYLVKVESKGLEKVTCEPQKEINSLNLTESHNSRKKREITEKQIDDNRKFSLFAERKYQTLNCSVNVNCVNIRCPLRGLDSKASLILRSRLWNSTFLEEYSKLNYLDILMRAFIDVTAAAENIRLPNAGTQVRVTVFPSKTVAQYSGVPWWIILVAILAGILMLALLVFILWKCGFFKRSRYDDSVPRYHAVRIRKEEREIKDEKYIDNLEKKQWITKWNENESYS
T3 sequence (P23229 942-1130 limits assumed): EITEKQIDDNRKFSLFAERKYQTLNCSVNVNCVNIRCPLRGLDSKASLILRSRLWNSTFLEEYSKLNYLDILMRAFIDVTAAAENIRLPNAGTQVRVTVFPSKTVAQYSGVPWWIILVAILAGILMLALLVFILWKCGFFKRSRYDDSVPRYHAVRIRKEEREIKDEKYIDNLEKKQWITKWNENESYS
T3 sequence (P16144 28-1752 isoform P16144-2 limits assumed): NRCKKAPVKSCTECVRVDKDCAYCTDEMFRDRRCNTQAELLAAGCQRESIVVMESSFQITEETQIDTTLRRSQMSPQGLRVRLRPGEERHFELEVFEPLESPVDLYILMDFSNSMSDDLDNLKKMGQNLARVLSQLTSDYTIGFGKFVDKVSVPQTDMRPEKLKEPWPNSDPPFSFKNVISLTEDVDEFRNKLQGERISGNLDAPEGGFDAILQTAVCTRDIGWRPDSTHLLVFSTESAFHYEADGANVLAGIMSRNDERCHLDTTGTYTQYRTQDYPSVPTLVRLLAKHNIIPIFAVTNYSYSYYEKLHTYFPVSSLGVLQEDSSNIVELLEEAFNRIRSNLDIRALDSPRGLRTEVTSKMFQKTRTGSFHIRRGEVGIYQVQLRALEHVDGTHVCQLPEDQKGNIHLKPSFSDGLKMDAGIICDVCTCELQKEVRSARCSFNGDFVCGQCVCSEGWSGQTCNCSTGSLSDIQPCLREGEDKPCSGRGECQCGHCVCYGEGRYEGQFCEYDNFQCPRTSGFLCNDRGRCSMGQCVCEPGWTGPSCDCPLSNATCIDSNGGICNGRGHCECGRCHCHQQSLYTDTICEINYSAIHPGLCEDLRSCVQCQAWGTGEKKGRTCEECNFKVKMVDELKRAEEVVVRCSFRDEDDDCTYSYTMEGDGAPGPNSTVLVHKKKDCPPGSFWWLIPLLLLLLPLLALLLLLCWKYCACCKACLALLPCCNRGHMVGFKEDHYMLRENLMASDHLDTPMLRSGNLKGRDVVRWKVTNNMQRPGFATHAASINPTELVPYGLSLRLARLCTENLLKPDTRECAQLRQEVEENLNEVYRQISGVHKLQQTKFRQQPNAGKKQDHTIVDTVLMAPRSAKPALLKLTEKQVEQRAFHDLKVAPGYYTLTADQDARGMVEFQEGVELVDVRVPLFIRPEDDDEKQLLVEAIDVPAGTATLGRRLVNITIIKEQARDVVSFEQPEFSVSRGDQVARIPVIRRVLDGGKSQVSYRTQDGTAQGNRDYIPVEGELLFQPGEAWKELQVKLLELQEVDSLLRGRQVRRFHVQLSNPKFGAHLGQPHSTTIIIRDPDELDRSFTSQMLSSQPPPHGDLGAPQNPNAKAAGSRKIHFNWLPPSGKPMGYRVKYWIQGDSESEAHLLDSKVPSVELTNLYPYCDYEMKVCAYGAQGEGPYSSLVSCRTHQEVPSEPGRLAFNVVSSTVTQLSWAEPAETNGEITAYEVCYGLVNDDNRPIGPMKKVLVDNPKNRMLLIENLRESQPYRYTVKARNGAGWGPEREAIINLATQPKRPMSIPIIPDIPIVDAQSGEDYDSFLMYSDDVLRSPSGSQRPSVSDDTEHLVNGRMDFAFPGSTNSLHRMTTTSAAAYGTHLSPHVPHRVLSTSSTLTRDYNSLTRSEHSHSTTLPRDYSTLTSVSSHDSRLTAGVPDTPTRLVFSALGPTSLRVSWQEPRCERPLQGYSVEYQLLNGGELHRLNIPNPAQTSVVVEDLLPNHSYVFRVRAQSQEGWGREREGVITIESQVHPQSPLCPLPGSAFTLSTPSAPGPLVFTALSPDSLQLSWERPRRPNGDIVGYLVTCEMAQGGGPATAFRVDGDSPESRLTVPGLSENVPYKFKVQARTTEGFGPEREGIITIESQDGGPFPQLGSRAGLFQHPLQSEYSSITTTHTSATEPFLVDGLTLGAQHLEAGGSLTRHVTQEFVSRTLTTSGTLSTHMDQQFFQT

With “S4ED 78-118: truncated Sdc4 ectodomain, amino acids 78-118 (VVHPLVPLDNHIPERAGSGSQVPTEPKKLEENEVIPKRISP)”, the competitive activity result in [1] was “ca. 10%”. Also, in the data set with fibroblasts, the “activity as competitor for cell adhesion to full-length S4ED (in words)” value is “completely inactive”.
As a reminder, the IC50 is the midpoint of a concentration-inhibition curve. Lower therefore signals greater potency in that assay. “NHIPERAGSGSQVPTEPKKLEENEVIPKRISPVEESEDVSNKVSM” came in with an IC50 in data set [2] (12 h) of 100 to 300 nM. In data set [2] (EGF 10 ng/ml, scratch wound closure), the “effect on EGF-stimulated migration/chemotaxis (in words)” value is “blocks”. Besides, the “growth or survival (total cell number)” value (in the data set on MCF10A cells; in data set [3]) was “no effect” in each case. In addition, the “growth/survival (total cell number)” value with SKBr3 cells, in the data set with SCC25 cells, with UM-SCC47 cells and in the data set with MDA-MB-468 cells was “do target growth/survival mechanisms; also recorded: inhibited” each time. Moreover, the “effect on EGF-induced migration / wound closure (in words)” value in the data set on HaCat keratinocytes was “blocks”.
In the case of `COc1cc(/C=C(\C#N)C(N)=O)cc(CSc2nc3ccccc3s2)c1O` [AG825], in the data set with HaCat keratinocytes (10 μM AG825), the “effect on EGF-induced migration / wound closure (in words)” value was “not inhibited; also recorded: not by the tyrphostin AG825”.
Regarding “4126-131: synthetic peptide with truncation of amino acids 126-131 at the C-terminus (NHIPERAGSGSQVPTEPKKLEENEVIPKRISPVEESEDV)”, the “reduction of competitive activity, synthetic peptide variants versus peptide 87-131” value in [1] (0.1 to 30 μM, 20 ng/ml EGF, FIG. 8C) is recorded as “at least 100 fold”.
Turning to `COc1cc2ncnc(Nc3ccc(F)c(Cl)c3)c2cc1OCCCN1CCOCC1` [Iressa], the “effect on EGF-induced migration / wound closure (in words)” value in the data set on HaCat keratinocytes (1 μM Iressa) is “does block wound closure; also recorded: blocked”.
For the molecule “S4ED98-131: truncated Sdc4 ectodomain, amino acids 98-131 (QVPTEPKKLEENEVIPKRISPVEESEDVSNKVSM)”, the competitive activity entry in [1] is recorded as “ca. 10%”. In addition, the “loss of activity versus S4ED78-131 as competitor for cell adhesion” value in the data set on fibroblasts is given as 100 fold.

B1: GST-S4ED: recombinant Sdc4 ectodomain GST fusion protein (protein)
chain: ESIRETEVIDPQDLLEGRYFSGALPDDEDVVGPGQESDDFELSGSGDLDDLEDSMIGPEVVHPLVPLDNHIPERAGSGSQVPTEPKKLEENEVIPKRISPVEESEDVSNKVSMSSTVQGSNIFERTE
modifications: left off: a dimerising Fc or GST
notes: recombinant Sdc4 ectodomain GST fusion protein
Turning to B1, the entries for the “capture of EGFR” value with EGFR and with EGFR (listed as S4ED) were “captures” and “captures only EGFR”, respectively. For the same molecule, the “block of EGF-stimulated migration” value in data set [2] (10 μM, EGF 10 ng/ml, 12 hr scratch wound closure) is given as 80%. The “capture of HER2” value in the data set with HER2 is “captures only EGFR”. In the data set with α6β4 integrin, the “capture of α6β4 integrin” value is given as “also captured”. Further, the tumor growth entry in [4] was “tumor growth leveling off”; in [4] (listed as S4ED), “blocks”. For the same molecule, in data set [5], the “estimated concentration in the blood” value is 2 to 3 µM.

The values above are taken from US10080777B2, “Syndecan peptides and polypeptides and uses thereof” (WISCONSIN ALUMNI RESEARCH FOUNDATION, priority 2012, dated 2018).
